Values after ≈ are worked out from the molar mass of the structure shown. Like-named read-outs stand apart in the source and are kept apart here. Non-standard residues stand in square brackets, D forms with d. Residues, ends and D or L forms follow the SMILES beside them. d1Nal = N[C@H](Cc1cccc2ccccc12)C(=O)O
Experiments:
[1] = tested on: albino hairless guinea pigs Crl:IAF(HA)-hrBR (Outbred); assay: Photosafety study: primary irritancy, phototoxicity, contact hypersensitivity, photoallergy; format: in vivo, guinea pig; settings: single topical administration and UVR; XMP.629 up to 10 mg/mL (1.0%)
Method: XMP.629 was evaluated for photoallergic potential administered topically to hairless guinea pigs. Primary irritancy, phototoxicity (photoirritancy) and contact hypersensitivity were also evaluated in these studies.
Male CrI:IaF(HA)-hrBR (Outbred) albino hairless guinea pigs were assigned to 7 groups, five guinea pigs per group as outlined below.
XMP.629 was formulated as a gel. The phototoxicity comparator article was 8-methoxypsoralen (8-MOP) in methanol at concentrations of 0.1, 0.3 and 1.0 mg/mL. The contact hypersensitivity and photoallergy comparator article was 3,3′,4′,5′-tetrachlorosalicy/anilide (TCSA) in acetone:corn oil (4:1, v/v) at challenge concentrations of 0 (Vehicle), 10, and 30 mg/mL. The reagent and reagent vehicle were Freund's complete adjuvant (FCA) and sterile water for injection, USP, respectively.
The formulation administration and ultraviolet radiation (UVR) exposure regimens for each group in the study were as follows.
For all phases of the study, test articles, test article vehicles, comparator articles and comparator article vehicles were administered (0.3 ml) using a Hilltop chamber affixed to the guinea pig with dental dam overlaid with a Velcro® wrap for approximately 2.0 hours per administration.
Primary irritancy potential of the test articles and test article vehicles was evaluated in Group 1 guinea pigs. Three chambers (one per formulation dosage) were attached to the dorsal skin along the midline. After the administration period the chamber patches were removed and the application sites were gently wiped.
Cutaneous phototoxicity potential of the test articles and test article vehicles was evaluated in Group 2 guinea pigs. Group 3 guinea pigs were used as a comparator group with elicitation of phototoxicity with 8-MOP. Three chambers (one per formulation dosage) were attached to the dorsal skin along the midline and occluded. After the administration period the chamber patches were removed and the application sites were gently wiped. After wiping, Group 2 and 3 guinea pigs were exposed to solar-simulated UVR for approximately 2.25 hours.
For induction of contact hypersensitivity and photoallergy, a nuchal area of skin approximately 2.5 cm^2 was defined by intradermal injections with a formulation of sterile water and FCA in guinea pigs in Groups 4 through 7 under isoflurane/oxygen anesthesia. This skin area was then tape stripped five times. Formulations were topically administered via chambers as described in the study design table using one chamber attached to the nuchal area. After removal of the chambers the application sites were gently wiped and the nuchal site of Group 6 and 7 guinea pigs was exposed to UVR as above. Appropriate procedures for guinea pigs (with the exception of injection with FCA) were repeated once daily on Days 3, 5, 8, 10 and 12 of the induction phase.
On Day 22 (contact hypersensitivity and photoallergy challenge), formulations were topically applied to appropriate sites on guinea pigs in Groups 4 through 7 as described above. Three chambers (one per formulation dosage) were attached to the dorsal skin along the midline and occluded. The chambers were then removed and the application sites were gently wiped. Guinea pigs in Groups 6 and 7 were then exposed to UVR as above.
Observations for general appearance and clinical signs were made weekly throughout the study. […] Body weights were recorded at initiation of dosing for each phase, weekly thereafter and at sacrifice. […]

Pseudomonas aeruginosa = assay: microbe, parasite or virus in culture
Bacteroides fragilis = assay: microbe, parasite or virus in culture; format: cell-based; settings: Bacteroides fragilis 25285; read-out: Minimum Inhibitory Concentrations
Method: (§1) Acne vulgaris may involve a microbial consortium. Although P. acnes may be a prominent member of such a consortium, other uncharacterized bacteria may also participate. The microbial activity of XMP.629 as an acetate gel as described in Example 5 and other commonly used antibiotics was evaluated against a panel of human pathogens using standardized NCCLS protocols. […] Lesser potency was observed against the gram-negative organisms B. fragilis, B. cepacia, P. mirabilis and S. marcescens, which are often refractory to many antimicrobial compounds.

Proteus mirabilis = assay: microbe, parasite or virus in culture; format: cell-based; settings: Proteus mirabilis 29852; read-out: Minimum Inhibitory Concentrations
Method: as §1

Escherichia coli = assay: microbe, parasite or virus in culture; format: cell-based; settings: Escherichia coli, read-out: Minimum Inhibitory Concentrations
Method: as §1

Serratia marcescens = assay: microbe, parasite or virus in culture; format: cell-based; settings: Serratia marcescens 13880; read-out: Minimum Inhibitory Concentrations
Method: as §1

Klebsiella pneumoniae = assay: microbe, parasite or virus in culture; format: cell-based; settings: Klebsiella pneumoniae, read-out: Minimum Inhibitory Concentrations
Method: as §1

Staphylococcus aureus [2] = settings: Staphylococcus aureus 342U-116
E. coli = E. coli 4104 LF
P. acnes [3] = assay: microbe, parasite or virus in culture; settings: Cutibacterium acnes
P. acnes [4] = settings: strains UPC686 and UP2022; with XMP.629
P. acnes [5] = assay: microbe, parasite or virus in culture; settings: Cutibacterium acnes; for MIC90: read-out: MIC90 of Standard Topical Agents
Method: An in vitro assessment of antibiotic activity in XMP.629 and various known antibiotics against a representative panel of bacterial strains associated with acne was conducted. A broth dilution methodology was employed using guidelines established by National Committee for Clinical Laboratory Standards (NCCLS) for anaerobic organisms to establish an antibacterial profile for XMP.629. Assays to determine the minimal bactericidal concentrations (MBC) and minimal inhibitory concentration (MIC) were conducted for XMP.629 and other known antibiotics.
Inoculum from a representative panel of bacterial strains associated with acne, such as P. acnes, P. avidum, P. granulosum, and Staphylococcus epidermis was prepared by suspending approximately 5-10 isolated bacterial colonies in pre-reduced MicroScan® Inoculum Water (Dade Behring, Deerfield, Ill.), and growing the bacterial suspension to log phase (approximately 48 hrs). An inoculum of between 1-5×10^6/mL was achieved by adding 100 μL of the suspension to 25 mL Brain Heart Infusion Broth (BHI) (Anaerobe Systems, Morgan Hill, Calif.).
A stock solution of XMP.629 dissolved in water at a concentration of 4.0 mg/mL was prepared. Dilute solutions of XMP.629 at concentrations ranging from about 1.25 to about 160 μg/mL were made in either water or formulation buffer (130 mM sodium chloride, 0.2% P103 (poloxamer 333), and 0.10% EDTA, pH 7.3).
Control tubes containing only water or formulation buffer were prepared for each isolate. Initial growth controls were determined by removing 10 μL from the water control tube and diluting it by 100 fold. From this dilution, 10 μL was used for inoculation and for spreading over the surface onto Laked Blood Agar (LBA) (Anaerobe Systems, Morgan Hill, Calif.) plates. The tubes and plates were incubated in an anaerobic atmosphere at 37° C. for 48 h.

[6] = tested on: P. acnes strain (ATCC 6919); settings: P. acnes ATCC 6919 passaged in the drug, level of the resistant culture sought/obtained
[7] = tested on: P. acnes strain (ATCC 6919); assay: microbe, parasite or virus in culture; settings: Cutibacterium acnes, ATCC6919, read-out: MIC for matched, untreated, control organisms
Corynebacterium = assay: microbe, parasite or virus in culture; format: cell-based; settings: read-out: MIC90 of Standard Topical Agents
Method: (§2) Control tubes containing only water or formulation buffer were prepared for each isolate. Initial growth controls were determined by removing 10 μL from the water control tube and diluting it by 100 fold. From this dilution, 10 μL was used for inoculation and for spreading over the surface onto Laked Blood Agar (LBA) (Anaerobe Systems, Morgan Hill, Calif.) plates. The tubes and plates were incubated in an anaerobic atmosphere at 37° C. for 48 h. […] MBC50 and 90 values represent where 50 and 90%, respectively, of the tested strain's MBC values are equal to or less than the indicated concentration.

S. aureus = assay: Comparison of XMP.629 with standard topical agents (MIC90/MBC); format: cell-based, Staphylococcus aureus; settings: Staphylococcus aureus
Method: as §2

Staphylococcus aureus [8] = assay: microbe, parasite or virus in culture
[9] = tested on: Enterococcus faccium (VRE); assay: microbe, parasite or virus in culture; settings: read-out: Minimum Inhibitory Concentrations
hemizygous Tg.AC mice = assay: Mouse dermal carcinogenicity study (TPA in XMP.629 acetate gel placebo); format: in vivo
Method: XMP.629 was evaluated in a dermal carcinogenicity study to determine whether repeated dermal treatment with tetradeconyl phorbol acetate (TPA) in a XMP.629 acetate gel placebo formulation increased the incidence of skin tumors in hemizygous Tg.AC mice. […] Group 1 was treated with XMP.629 acetate gel placebo alone. A sixth group (Group 2) was treated with TPA dissolved in acetone at a dose level of 1.25 μg per 150 μL application and served as a reference standard. The animals were dosed via dermal application three times per week (e.g., Monday, Wednesday and Friday) for 12 consecutive weeks.
All animals were observed twice daily for moribundity and mortality. A hands-on examination was performed weekly at the time the animals were weighed on Day 1 and weekly thereafter. At that time, the animals were examined for clinical evidence of toxicity, carcinogenicity, and/or irritation at the site of application. […] The number of tumors at the site of application (SOA) and non-site of application (non-SOA) was recorded for each animal each week. At the end of the study (Day 85), the surviving animals were euthanized with CO2 asphyxiation. A necropsy was not performed.

in vivo = settings: both, rat, plasma, po, 10 mg/kg, Bioavailability, 10 mg/kg oral gavage in distilled water
[10] = 10 mg/kg oral gavage
patients = settings: clinical trials; cited from earlier work
skin of healthy subjects = assay: 21-day cumulative skin irritation study in healthy subjects; settings: occlusive patches
Method: Subjects include males and females, ranging in age from 18 to 70 years old. Subjects are of any skin and race type.
Patches are prepared approximately 5-60 minutes before application to the subject and are applied on the backs of subjects at designated sites. Patches are held in place with appropriate adhesion tapes for 48 hours. Gels are applied to the same site on a given subject according to the randomization code three times per week. Subjects are instructed to keep the patches dry and are asked to avoid exercise that results in excessive sweating. Additionally, subjects are instructed to not expose the applied sites to sunlight for the duration of the study.
Every application is observed 48 hours later for signs of irritation or inflammation by a clinician or investigator. The clinician or investigator evaluates sign of skin reaction on each site for approximately 5-15 minutes after the patch is removed. Skin irritancy is rated according to the following commonly used 6-point scale: • 0=No sign of irritation • 0.5=Barely perceptible erythema • 1=Slight erythema • 2=Noticeable erythema with slight infiltration • 3=Erythema with marked edema • 4=Erythema with edema and blistering
Other signs of skin reaction to the tested gels are noted as adverse events and are recorded. A total of nine readings are performed during the study. […]

[11] = read-out: Minimum Inhibitory Concentrations, Pseudomonas aeruginosa 27853
[12] = clindamycin/erythromycin sensitive strain UP2022

Method for physchem: In additional studies, a variety of formulations of XMP.629 were tested for stability under various temperatures, such as 25° C., 40° C., and 50° C., and at various time points, such as 0.5, 1, and 2 months.
The solubility of XMP.629 acetate in various solvents was also evaluated.
Solubility studies were conducted using a variety of solvent systems and/or skin penetration enhancers.

COc1c2occc2cc2ccc(=O)oc12 [8-MOP, 8-methoxypsoralen, reference compound]
phototoxicity [1]: produced skin reactions indicative of cutaneous phototoxicity

CO/N=C(\C(=O)N[C@@H]1C(=O)N2C(C(=O)O)=C(CSc3nc(=O)c(=O)[nH]n3C)CS[C@H]12)c1csc(N)n1 [Ceftriaxone]
MIC (Pseudomonas aeruginosa; [11]): 8 µg/mL (≈ 14.4 µM)
MIC (Pseudomonas aeruginosa; read-out: Minimum Inhibitory Concentrations, Pseudomonas aeruginosa XS-65 (MDR)): 16 µg/mL (≈ 28.9 µM)
MIC (Bacteroides fragilis): 2.5 µg/mL (≈ 4.51 µM)
MIC (Proteus mirabilis): ≤ 0.063 µg/mL
MIC (Escherichia coli; Escherichia coli 07:K1): ≤ 0.25 µg/mL
MIC (Escherichia coli; Escherichia coli 0111:B4): ≤ 0.063 µg/mL
MIC (Serratia marcescens): 0.25 µg/mL (≈ 0.451 µM)
MIC (Klebsiella pneumoniae; Klebsiella pneumoniae 19645): > 64 µg/mL
MIC (Klebsiella pneumoniae; Klebsiella pneumoniae 29011): 0.13 µg/mL (≈ 0.234 µM)
MBC (antibiotic alone) (Staphylococcus aureus [2]): >4 µg/mL
MBC (antibiotic alone) (E. coli): ≦4 μg/mL

CCC[C@@H]1C[C@@H](C(=O)N[C@@H]([C@H]2O[C@H](SC)[C@H](O)[C@@H](O)[C@H]2O)[C@H](C)Cl)N(C)C1 [Clindamycin]
MIC (P. acnes [3]; [12]): < 1 µg/mL
FIC (P. acnes [4]): 2
MIC90 (P. acnes [5]): 16 µg/mL (≈ 37.6 µM)
MIC (P. acnes [5]; read-out: MIC of clindamycin resistant strains): > 64 µg/mL
MIC/MBC [6]: >64 µg/mL

C[C@H]1c2cccc(O)c2C(=O)C2=C(O)[C@]3(O)C(=O)C(C(N)=O)=C(O)[C@@H](N(C)C)[C@@H]3[C@@H](O)[C@@H]21 [Doxycycline]
MIC (Pseudomonas aeruginosa; [11]): 32 µg/mL (≈ 72 µM)
MIC (Proteus mirabilis): 64 µg/mL (≈ 144 µM)
MIC (Escherichia coli; Escherichia coli 0111:B4): 2 µg/mL (≈ 4.5 µM)
MIC (Serratia marcescens): 8 µg/mL (≈ 18 µM)
MIC (Klebsiella pneumoniae; Klebsiella pneumoniae 19645): 32 µg/mL (≈ 72 µM)
MIC (Klebsiella pneumoniae; Klebsiella pneumoniae 29011): 32 µg/mL (≈ 72 µM)

CC[C@H]1OC(=O)[C@H](C)[C@@H](O[C@H]2C[C@@](C)(OC)[C@@H](O)[C@H](C)O2)[C@H](C)[C@@H](O[C@@H]2O[C@H](C)C[C@H](N(C)C)[C@H]2O)[C@](C)(O)C[C@@H](C)C(=O)[C@H](C)[C@@H](O)[C@]1(C)O [Erythromycin]
MIC (P. acnes [3]; ATCC6919, ATCC 6919 converted to an intermediate-erythromycin strain): 64 µg/mL (≈ 87.2 µM)
MIC (P. acnes [3]; [12]): < 1 µg/mL
MIC [7]: 4 µg/mL (≈ 5.45 µM)
FIC (P. acnes [4]): 2
MIC90 (Corynebacterium): 0.5 µg/mL (≈ 0.681 µM)
MIC90 (P. acnes [5]): > 256 µg/mL
MIC/MBC ([6]; listed as Erythromycin IR): 64 µg/mL (≈ 87.2 µM)
MIC/MBC ([6]; listed as Erythromycin R): >64 µg/mL
MIC90 (S. aureus): > 4 µg/mL

C/C(=C\C(=O)OCCCCCCCCC(=O)O)C[C@@H]1OC[C@H](C[C@@H]2O[C@H]2[C@@H](C)[C@H](C)O)[C@@H](O)[C@H]1O [Mupirocin]
MIC90 (S. aureus): 4 µg/mL (≈ 7.99 µM)

Cc1onc(-c2ccccc2)c1C(=O)N[C@@H]1C(=O)N2[C@@H]1SC(C)(C)[C@@H]2C(=O)O [Oxacillin]
MIC (Staphylococcus aureus [8]; BAA38|MRSA, read-out: Minimum Inhibitory Concentrations, Staphylococcus aureus BAA-38 (MRSA)): 8 µg/mL (≈ 19.9 µM)
MIC (Staphylococcus aureus [8]; read-out: Minimum Inhibitory Concentrations, Staphylococcus aureus 19636): 1 µg/mL (≈ 2.49 µM)
MBC (antibiotic alone) (Staphylococcus aureus [2]): 1 µg/mL (≈ 2.49 µM)
MIC [9]: > 64 µg/mL

CCCCCCCCCCCCCC(=O)O[C@@H]1[C@@H](C)[C@@]2(O)[C@@H](C=C(CO)C[C@]3(O)C(=O)C(C)=C[C@@H]23)[C@@H]2C(C)(C)[C@]12OC(C)=O [TPA, tetradeconyl phorbol acetate]
tumor development (hemizygous Tg.AC mice; 10 μg TPA per application, a single female): one latent and one actual papilloma
tumor development, females (hemizygous Tg.AC mice; 20 μg TPA per application): 4/4
tumor development, males (hemizygous Tg.AC mice; 20 μg TPA per application): 2/5
tumor development (hemizygous Tg.AC mice; 2.5 and 5.0 μg per application in XMP.629 acetate gel placebo): did not result in tumor development

CC(C)C[C@@H](NC(=O)[C@H](N)CCCCN)C(=O)N[C@H](Cc1ccccc1)C(=O)N[C@H](CCCNC(=N)N)C(=O)N[C@H](Cc1cccc2ccccc12)C(=O)N[C@H](CCC(N)=O)C(=O)N[C@H](C)C(=O)N[C@H](CCCCN)C(=O)N[C@H](Cc1cccc2ccccc12)C(N)=O [XMP.629 acetate] (H-[dK][dL][dF][dR][d1Nal][dQ][dA][dK][d1Nal]-NH2)
bioavailability (in vivo): ~0.001%
Bioavailability, 5% glucose formulation versus distilled water [10]: ~4 fold
peak concentrations, 5% glucose formulation versus distilled water [10]: ~4 fold
time of peak concentrations following dosing [10]: 10 to 20 min
solubility (physchem; ethanol, 200 proof): < 2200 µg/mL
solubility (physchem; propylene glycol): 10600 to 12500 µg/mL
solubility (physchem; purified water): < 1660 µg/mL
solubility (physchem; sodium acetate buffer, pH 6): > 1640 µg/mL
solubility (physchem; transcutol P): < 170 µg/mL

O=C(O)CCCCCCCC(=O)O [azelaic acid]
patients reporting pruritus (itching), burning, stinging, and tingling (patients): 1-5%

CCCCCCCCCCCCOS(=O)(=O)[O-].[Na+] [sodium lauryl sulfate]
cumulative irritation, conclusion (skin of healthy subjects): mild cumulative irritation
mean cumulative irritation score (skin of healthy subjects): 0.25
